The assay concerns the target T1, DT-Bgl (Anoxybacillus gonensis, UniProt M5QUM2).
T1 construct: full-length ORF, 453 residues (no signal peptide), pET-28a BamHI/XhoI, Ni-NTA purified (His tag, removal not mentioned), E. coli BL21(DE3), 53 kDa on SDS-PAGE
Description: HPLC of cellobiose hydrolysis with added glucose. The assay is classed as biochemical. As to conditions: 400000 µM; substrate cellobiose (1% w/v in substrate assay), 100 mM glycine-NaOH pH 8.5, 60 °C; product inhibition.

With `OC[C@H]1OC(O)[C@H](O)[C@@H](O)[C@@H]1O` (stereo partly shown) [glucose], the “% relative activity in 0.4 M glucose” value was determined as 54%.

The record behind these values is article PMC4994278, “Characterization of a glucose-tolerant β-glucosidase from Anoxybacillus sp. DT3-1” (Biotechnology for Biofuels, 2016).
